Test results as given in paper PMC11882969 (Nature Communications, 2025).
“And” between values parts separate entries of the source, which are not always exact repeats. Equal values may be shown once. Read-outs that look alike come from different tables or passages of the source.

Tests used:
[1] = molecular target: T1, hCB1 (Homo sapiens, UniProt P21554); experiment: bioSensAll ebBRET signaling profiling, hCB1; format: cell-based; design: host or cells: HEK293SL cells, transient PEI transfection; conditions: for Gi1 hCB1 / GoB hCB1: single replicate values, FigS6a; for EC50: read-out: EC50 [95% CI]; for Emax: normalized to CP-55,940
T1 sequence (P21554 whole entry): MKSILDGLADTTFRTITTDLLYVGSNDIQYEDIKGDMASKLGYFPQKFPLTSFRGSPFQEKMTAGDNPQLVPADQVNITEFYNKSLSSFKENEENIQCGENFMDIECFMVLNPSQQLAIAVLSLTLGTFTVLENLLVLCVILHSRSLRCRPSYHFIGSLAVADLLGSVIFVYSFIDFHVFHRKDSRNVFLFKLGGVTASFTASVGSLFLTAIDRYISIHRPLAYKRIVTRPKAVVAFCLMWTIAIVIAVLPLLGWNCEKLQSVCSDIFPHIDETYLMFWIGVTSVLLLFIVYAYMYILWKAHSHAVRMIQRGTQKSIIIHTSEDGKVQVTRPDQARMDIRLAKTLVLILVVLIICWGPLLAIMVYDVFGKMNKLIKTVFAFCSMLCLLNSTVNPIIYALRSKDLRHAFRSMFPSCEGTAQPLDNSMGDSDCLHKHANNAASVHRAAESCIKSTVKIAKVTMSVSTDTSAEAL

[2] = molecular target: T1, hCB1; experiment: Lance Ultra cAMP accumulation assay, CHO cells; format: cell-based; design: expressed in transfected cells; conditions: for cAMP assay signal, concentration-response point: replicates, sheet FigureS2a; for normalised cAMP response, concentration-response (Figure2f), replicate values: log[Compound;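 on all read-outs here: human CB1R stably expressed in CHO cells, ligands co-incubated with forskolin at room temperature, read-out is lowering of forskolin-stimulated cAMP accumulation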
[3] = molecular target: CB1 (rCB1) (Rattus norvegicus, UniProt P20272); experiment: Radioligand competition binding, [3H]-CP-55,940, rat brain membranes
CB1 (rCB1), sequence (P20272 whole entry): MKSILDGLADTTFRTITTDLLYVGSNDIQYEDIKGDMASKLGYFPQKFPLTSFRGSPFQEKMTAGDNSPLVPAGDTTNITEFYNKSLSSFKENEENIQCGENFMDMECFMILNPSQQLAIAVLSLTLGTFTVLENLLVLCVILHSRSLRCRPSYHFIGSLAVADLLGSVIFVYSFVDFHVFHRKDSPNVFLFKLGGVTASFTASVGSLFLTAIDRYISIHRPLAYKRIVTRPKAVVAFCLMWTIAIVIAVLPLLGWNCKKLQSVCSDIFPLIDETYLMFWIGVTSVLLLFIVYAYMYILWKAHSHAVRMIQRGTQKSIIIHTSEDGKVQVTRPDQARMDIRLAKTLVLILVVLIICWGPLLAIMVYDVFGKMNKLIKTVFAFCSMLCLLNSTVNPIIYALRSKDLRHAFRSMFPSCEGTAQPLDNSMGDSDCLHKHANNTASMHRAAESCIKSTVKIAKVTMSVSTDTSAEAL

SMILES: COC(=O)C(NC(=O)c1cc(C)n(-c2cccc(F)c2)n1)c1cccs1 (centres unmarked) [‘51486]
- Gi1 hCB1 ([1]; Log [Compound] (M) -9.15521): 0.7365
- GoB hCB1 ([1]; Log [Compound] (M) -9.15521): -2.906
- Gi1 hCB1 ([1]; Log [Compound] (M) -9.61989): 0.5515
- GoB hCB1 ([1]; Log [Compound] (M) -9.61989): -0.9276
- Gi1 hCB1 ([1]; Log [Compound] (M) -10.0969): 1.1836
- GoB hCB1 ([1]; Log [Compound] (M) -10.0969): -3.176
- Gi1 hCB1 ([1]; Log [Compound] (M) -10.5529): 0.2124
- GoB hCB1 ([1]; Log [Compound] (M) -10.5529): -1.989
- Gi1 hCB1 ([1]; Log [Compound] (M) -11.0177): 0.3974
- GoB hCB1 ([1]; Log [Compound] (M) -11.0177): -1.521
- Gi1 hCB1 ([1]; Log [Compound] (M) -11.4949): 0.1507
- GoB hCB1 ([1]; Log [Compound] (M) -11.4949): -1.827
- Gi1 hCB1 ([1]; Log [Compound] (M) -11.9208): -0.03431
- GoB hCB1 ([1]; Log [Compound] (M) -11.9208): 0.2953
- Gi1 hCB1 ([1]; Log [Compound] (M) -12.3979): -0.06514
- GoB hCB1 ([1]; Log [Compound] (M) -12.3979): -1.179
- Gi1 hCB1 ([1]; Log [Compound] (M) -12.8861): -0.466
- GoB hCB1 ([1]; Log [Compound] (M) -12.8861): -2.798
- Gi1 hCB1 ([1]; Log [Compound] (M) -13): -0.8976 and -0.03431
- GoB hCB1 ([1]; Log [Compound] (M) -13): -1.143 and -0.8017
- pEC50 [95% CI] ([1]; hCB1 Gi1): 6.1 [6.0 – 6.1]
- pEC50 [95% CI] ([1]; hCB1 GoB): 6.2 [6.1 – 6.2]
- pEC50 [95% CI] ([1]; hCB1 Gz): 6.0 [5.5 – 6.4]
- EC50 ([1]; hCB1 Gi1): 849 nM
- EC50 ([1]; hCB1 GoB): 711 nM
- EC50 ([1]; hCB1 Gz): 1120 nM
- Emax ([1]; read-out: Emax [95% CI], hCB1 Gi1): 73%
- Emax ([1]; read-out: Emax [95% CI], hCB1 GoB): 74%
- Emax ([1]; read-out: Emax [95% CI], hCB1 Gz): 130%
- cAMP assay signal, concentration-response point ([2]; compound 0.01 nM): 0.003086 and 0.002857 and 0.002584
- cAMP assay signal, concentration-response point ([2]; compound 0.1 nM): 0.003236 and 0.002959 and 0.003953*
- cAMP assay signal, concentration-response point ([2]; compound 1 nM): 0.003012 and 0.002545 and 0.00241
- cAMP assay signal, concentration-response point ([2]; compound 10 nM): 0.003401 and 0.002801 and 0.00274
- cAMP assay signal, concentration-response point ([2]; compound 100 nM): 0.002632 and 0.003106 and 0.002457
- cAMP assay signal, concentration-response point ([2]; compound 1000 nM): 0.002532 and 0.002088 and 0.00216
- cAMP assay signal, concentration-response point ([2]; compound 10000 nM): 0.001565 and 0.001538 and 0.001686
- cAMP assay signal, concentration-response point ([2]; compound 100000 nM): 0.001247 and 0.001041 and 0.0009747
- agonism, inhibition of forskolin-stimulated cAMP ([2]; hCB1-expressing cells, in words): modest agonism
- normalised cAMP response, concentration-response (Figure2f), replicate values ([2]; M] -5): 61.1478 and 37.2808 and 60.3783 and 74.6524
- normalised cAMP response, concentration-response (Figure2f), replicate values ([2]; M] -6): 88.8547 and 72.8445 and 99.0012 and 98.4034
- normalised cAMP response, concentration-response (Figure2f), replicate values ([2]; M] -7): 93.8057 and 91.7167 and 95.78 and 96.566
- normalised cAMP response, concentration-response (Figure2f), replicate values ([2]; M] -8): 85.2922 and 84.747 and 110.313 and 100.436
- normalised cAMP response, concentration-response (Figure2f), replicate values ([2]; M] -9): 104.899 and 94.89 and 101.982 and 109.312
- normalised cAMP response, concentration-response (Figure2f), replicate values ([2]; M] -10): 98.9432 and 97.9859 and 99.2252 and 102.121
- normalised cAMP response, concentration-response (Figure2f), replicate values ([2]; M] -11): 94.0694 and 79.1039 and 104.119 and 97.9362
- normalised cAMP response, concentration-response (Figure2f), replicate values ([2]; M] -12): 99.9579 and 92.8829 and 101.899 and 97.9047
- Ki [3]: 794 nM
- LLE (lipophilic ligand efficiency) ([3]; LLE = pIC50 − clogP): 3.1
- binding free energy ΔG ([3]; from measured Ki): 8.4 kcal/mol
- LE (ligand efficiency) ([3]; from rCB1 affinity): 0.32
- radioligand binding remaining, competition curve (Figure2e), replicate values ([3]; log[drug] -3.643): 5.353 and 8.4728 and 6.119
- radioligand binding remaining, competition curve (Figure2e), replicate values ([3]; log[drug] -4.35655): 7.365 and 2.197 and 0.3487
- radioligand binding remaining, competition curve (Figure2e), replicate values ([3]; log[drug] -5.07): 21.0991 and 15.6904 and 16.8933
- radioligand binding remaining, competition curve (Figure2e), replicate values ([3]; log[drug] -5.783): 52.9233 and 50.4184 and 37.5523
- radioligand binding remaining, competition curve (Figure2e), replicate values ([3]; log[drug] -6.496): 81.1314 and 84.728 and 72.9079
- radioligand binding remaining, competition curve (Figure2e), replicate values ([3]; log[drug] -7.21): 91.0402 and 102.441 and 95.6067
- radioligand binding remaining, competition curve (Figure2e), replicate values ([3]; log[drug] -7.923): 92.6538 and 100.244 and 104.603
- radioligand binding remaining, competition curve (Figure2e), replicate values ([3]; log[drug] -8.636): 97.1716 and 91.2657
- pKi [95% CI] ([3]; rCB1): 6.14 [6.01 –6.26]
